Experimental findings from ChEMBL document CHEMBL1201862, “PubChem BioAssay data set” (2004) are described below.

Molecules are shown by their SMILES. Calls of active or inactive are those of the source.

The target of test [1] is Beta-2 adrenergic receptor (Homo sapiens, UniProt P07550). The test is described as follows: beta2AR agonists driving receptor internalization, dose response, cell-based, FAP fluorogen, flow cytometry, cherry pick 1 (AID 588763). In kind it is functional.
The test system of test [2] is Streptococcus. The test is described as follows: Group A Streptococcus viability loss, dose response, counter-screen for streptokinase expression inhibitor project, luminescence, BacTiterGlo (AID 1915).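 Further: potency for reduction of bacterial viability or growth.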 In kind it is functional, organism-based.
Test [3] has as its target T1, Endoribonuclease toxin MazF (Escherichia coli K-12, UniProt P0AE70). The test can be described thus: MazF toxin RNase activators, dose response, biochemical, fluorescence, single-stranded RNA substrate, uHTS hits (AID 588481). It counts as functional.
Test [4] concerns the target T1, Endoribonuclease toxin MazF. The test can be described thus: fluorescent RNA oligo signal without MazF, dose response, counter-screen for MazEF activator project, biochemical, fluorescence, single-stranded RNase substrate (AID 588502). It counts as functional. Background: Counterscreens check selectivity or assay interference.
Test [5] addresses T2, Streptokinase A (Streptococcus pyogenes serotype M1, UniProt P10520).
T2 sequence (P10520 whole entry): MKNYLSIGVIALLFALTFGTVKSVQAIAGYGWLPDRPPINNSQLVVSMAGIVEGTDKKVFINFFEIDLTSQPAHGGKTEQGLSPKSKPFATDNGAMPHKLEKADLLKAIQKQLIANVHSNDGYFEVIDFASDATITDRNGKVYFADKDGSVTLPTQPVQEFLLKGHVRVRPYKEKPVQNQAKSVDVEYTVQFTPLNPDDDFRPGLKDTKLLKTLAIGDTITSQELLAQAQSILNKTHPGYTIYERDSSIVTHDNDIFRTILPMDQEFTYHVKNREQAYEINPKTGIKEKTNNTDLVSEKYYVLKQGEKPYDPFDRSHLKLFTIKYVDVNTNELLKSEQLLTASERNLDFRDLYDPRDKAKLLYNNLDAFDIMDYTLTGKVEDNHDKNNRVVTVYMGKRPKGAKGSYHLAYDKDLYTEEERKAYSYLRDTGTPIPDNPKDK
The test can be described thus: S. pyogenes streptokinase expression inhibitors, potency, dose response, plasminogen activation absorbance, OD405 (AID 1914).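 Further: secreted streptokinase activity via plasminogen activation per viability signal from cell pellet.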 It counts as functional, Streptococcus pyogenes M1 GAS.

Test [6] deals with Streptococcus sp. 'group A'. The test is described as follows: growth inhibition of control SK(-) GAS strain, dose response, counter-screen for streptokinase expression inhibitor project, luminescence, kanamycin, BacTiterGlo, confirmation (AID 1900). In kind it is functional, organism-based.
Test [7] concerns the target Galanin receptor type 2 (Homo sapiens, UniProt O43603). The test is described as follows: Dose Response cell-based high-throughput screening assay to identify antagonists of galanin receptor 2 (GALR2). [Related pubchem assays: 828, 866 ]. In kind it is functional.
In test [8] the target is T3, Acyl-homoserine lactone acylase PvdQ (Pseudomonas aeruginosa (strain LESB58), UniProt Q9I194).
T3 sequence (Q9I194 whole entry): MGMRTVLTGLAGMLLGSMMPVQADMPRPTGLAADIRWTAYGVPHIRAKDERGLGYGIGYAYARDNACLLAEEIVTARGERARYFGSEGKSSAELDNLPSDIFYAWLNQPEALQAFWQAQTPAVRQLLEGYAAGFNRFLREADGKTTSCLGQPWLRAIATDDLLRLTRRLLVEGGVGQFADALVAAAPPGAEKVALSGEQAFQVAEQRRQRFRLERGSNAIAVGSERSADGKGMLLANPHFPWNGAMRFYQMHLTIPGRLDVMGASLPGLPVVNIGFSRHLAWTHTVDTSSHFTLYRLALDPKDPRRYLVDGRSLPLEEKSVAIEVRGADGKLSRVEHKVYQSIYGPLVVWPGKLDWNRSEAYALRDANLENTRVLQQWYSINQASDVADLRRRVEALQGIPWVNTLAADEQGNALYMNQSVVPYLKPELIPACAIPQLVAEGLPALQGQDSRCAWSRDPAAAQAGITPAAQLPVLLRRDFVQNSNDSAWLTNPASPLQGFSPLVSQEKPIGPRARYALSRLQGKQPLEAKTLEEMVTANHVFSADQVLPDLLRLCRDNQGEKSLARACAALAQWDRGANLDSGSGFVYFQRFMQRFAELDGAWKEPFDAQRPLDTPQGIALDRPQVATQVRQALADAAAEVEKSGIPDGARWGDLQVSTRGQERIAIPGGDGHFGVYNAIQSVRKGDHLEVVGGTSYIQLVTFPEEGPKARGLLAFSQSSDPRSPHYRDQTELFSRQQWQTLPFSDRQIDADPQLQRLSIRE
The test can be described thus: P. aeruginosa PvdQ acylase inhibitors, dose response, biochemical, fluorescence, plate reader and imaging, cherry-picks (AID 493231).

Test [9] has as its system HeLa. The test is described as follows: HeLa cell cytotoxicity, dose response, cytotoxicity control, 48 h, plate reader, cherry-picks (AID 504942). In kind it is functional, cell-based. The settings on record: Homo sapiens.
Test [10] can be described thus: blockers of SFLLRN-triggered platelet ATP secretion – cell-based, human platelets, luminescence, dry powder, dose response (AID 493100). In kind it is functional.
Test [11] in a line: Luminescence Cell-Based Dose Response Follow up to Identify Inhibitors of Platelet Dense Granule Release. [Related pubchem assays (depositor defined):AID1663, AID1678, AID2398]. In kind it is functional.
Test [12] deals with DNA topoisomerase (Yersinia pestis, UniProt A0A2S9PM60). The test is described as follows: Y. pestis Topo-I inhibitors, cleavage product readout, dose response, biochemical, cherry-pick (AID 588525).
The subject of test [13] is HEK293. The test can be described thus: cytotoxicity in HEK293T NF-kB-Luc cells, SAR follow-up, cytotoxicity control for NF-kB activator project, cell-based, resazurin fluorescence (AID 493251). It counts as functional. The settings on record: Homo sapiens. (In general: The colour change of resazurin is a common sign of viable cells or microbes.)
Test [14] relates to Jurkat. The test can be described thus: SAR Analysis of small molecule inhibitors of T-cell specific antigen receptor-induced NF-kB activation in a Jurkat cell line using a luminescence assay - Set 2. [Related pubchem assays (depositor defined):AID435003, AID435012, AID465]. The settings on record: Homo sapiens. It counts as functional, cell-based.
For test [15], the system named is HEK293. The test can be described thus: SAR Analysis of small molecule inhibitors of T-cell specific antigen receptor-induced NF-kB activation in a HEK-293T cell line using a luminescence assay - Set 2. [Related pubchem assays (depositor defined):AID435003, AID435012, AID489026]. In kind it is functional, cell-based. The settings on record: Homo sapiens.
Test [16] in a line: viability loss in Mcl1-dependent HMC-1-8 cells, dose response, selectivity assay for A1 inhibitor project, cell-based, luminescence, dry powder (AID 504415). In kind it is functional. The settings on record: Homo sapiens.
The nature of test [17]: cytotoxicity in HEK-293T cells, dose response, cytotoxicity control for BCR NF-kB inhibitor project, luminescence, B-cell screen hits (AID 489021).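 Further: HEK-293T cells carrying an NF-kB luciferase reporter; cells exposed to compound for about 14 hours before viability readout.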 It counts as functional, cell-based.
Test [18] deals with Protein disulfide-isomerase (Homo sapiens, UniProt P07237). The test is described as follows: PDI inhibitors, insulin aggregation turbidity, dose response, biochemical, absorbance, cherry-picked samples (AID 602350). It counts as functional.
Sequence of Protein disulfide-isomerase (P07237 whole entry): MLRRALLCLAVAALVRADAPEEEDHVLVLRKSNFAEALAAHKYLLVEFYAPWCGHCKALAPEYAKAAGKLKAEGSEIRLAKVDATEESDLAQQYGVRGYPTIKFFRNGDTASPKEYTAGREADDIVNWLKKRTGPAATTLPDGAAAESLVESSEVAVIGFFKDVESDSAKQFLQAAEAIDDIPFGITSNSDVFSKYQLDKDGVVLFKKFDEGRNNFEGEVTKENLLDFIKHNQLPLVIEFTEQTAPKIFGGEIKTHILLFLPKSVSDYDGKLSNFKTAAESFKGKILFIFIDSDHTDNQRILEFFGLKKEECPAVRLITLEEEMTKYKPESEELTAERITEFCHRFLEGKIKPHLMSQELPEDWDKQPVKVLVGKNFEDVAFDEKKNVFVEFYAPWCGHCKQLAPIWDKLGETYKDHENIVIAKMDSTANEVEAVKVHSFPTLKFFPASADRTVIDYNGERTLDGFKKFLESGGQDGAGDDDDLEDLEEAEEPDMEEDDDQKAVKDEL

T1 sequence (P0AE70 whole entry): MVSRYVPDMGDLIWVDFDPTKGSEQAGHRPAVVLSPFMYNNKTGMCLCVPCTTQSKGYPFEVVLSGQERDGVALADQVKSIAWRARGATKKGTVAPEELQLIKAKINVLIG
Sequence of Galanin receptor type 2 (O43603 whole entry): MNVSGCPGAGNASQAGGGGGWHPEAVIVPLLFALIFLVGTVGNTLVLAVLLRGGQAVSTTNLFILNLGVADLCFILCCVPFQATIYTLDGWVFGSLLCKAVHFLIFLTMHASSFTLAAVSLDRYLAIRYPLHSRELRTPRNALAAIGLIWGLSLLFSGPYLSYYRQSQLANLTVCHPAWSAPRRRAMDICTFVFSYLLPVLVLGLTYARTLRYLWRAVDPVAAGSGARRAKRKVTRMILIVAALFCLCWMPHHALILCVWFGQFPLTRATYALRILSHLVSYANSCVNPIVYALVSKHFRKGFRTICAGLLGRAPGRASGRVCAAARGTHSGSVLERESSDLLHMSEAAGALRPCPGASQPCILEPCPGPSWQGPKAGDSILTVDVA
Sequence of DNA topoisomerase (A0A2S9PM60 whole entry): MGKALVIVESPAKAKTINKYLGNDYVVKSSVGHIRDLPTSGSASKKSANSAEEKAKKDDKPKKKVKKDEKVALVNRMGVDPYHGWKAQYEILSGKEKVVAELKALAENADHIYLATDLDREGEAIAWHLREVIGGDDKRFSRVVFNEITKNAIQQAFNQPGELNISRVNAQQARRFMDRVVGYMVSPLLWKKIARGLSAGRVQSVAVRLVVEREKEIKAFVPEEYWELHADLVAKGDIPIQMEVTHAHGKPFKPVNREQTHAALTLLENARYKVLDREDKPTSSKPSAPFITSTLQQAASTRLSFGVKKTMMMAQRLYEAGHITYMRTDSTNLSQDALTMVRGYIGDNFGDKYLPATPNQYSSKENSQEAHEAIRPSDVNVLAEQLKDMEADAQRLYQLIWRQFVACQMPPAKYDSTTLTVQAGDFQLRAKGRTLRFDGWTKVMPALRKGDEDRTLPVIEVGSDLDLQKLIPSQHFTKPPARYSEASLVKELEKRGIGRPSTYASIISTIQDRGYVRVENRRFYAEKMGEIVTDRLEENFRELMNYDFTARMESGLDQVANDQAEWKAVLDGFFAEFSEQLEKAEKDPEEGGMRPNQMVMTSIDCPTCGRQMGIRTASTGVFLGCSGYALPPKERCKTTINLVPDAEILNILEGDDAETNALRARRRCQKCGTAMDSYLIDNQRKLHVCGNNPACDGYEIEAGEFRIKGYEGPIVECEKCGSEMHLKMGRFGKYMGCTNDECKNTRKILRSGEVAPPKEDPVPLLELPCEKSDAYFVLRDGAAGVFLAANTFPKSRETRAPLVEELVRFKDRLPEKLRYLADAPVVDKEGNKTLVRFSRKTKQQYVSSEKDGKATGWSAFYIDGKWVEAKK
Sequence of Beta-2 adrenergic receptor (P07550 whole entry): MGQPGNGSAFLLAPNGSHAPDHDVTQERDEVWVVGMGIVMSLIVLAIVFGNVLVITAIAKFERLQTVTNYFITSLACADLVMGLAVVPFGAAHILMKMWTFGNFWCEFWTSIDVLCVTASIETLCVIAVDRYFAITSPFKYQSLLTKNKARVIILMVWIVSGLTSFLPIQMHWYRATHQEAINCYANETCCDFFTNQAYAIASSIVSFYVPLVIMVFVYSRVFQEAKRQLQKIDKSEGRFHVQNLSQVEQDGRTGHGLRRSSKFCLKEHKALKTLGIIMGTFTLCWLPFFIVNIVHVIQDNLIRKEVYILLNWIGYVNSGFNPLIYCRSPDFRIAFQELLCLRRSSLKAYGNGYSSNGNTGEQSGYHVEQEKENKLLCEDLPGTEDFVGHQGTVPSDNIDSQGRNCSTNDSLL

Regarding `CCc1ccc(CN2CCC(Oc3ccc(C(=O)N4CCCC4)cc3)CC2)cc1`, the EC50 (as a rule, the midpoint of the concentration-response curve) in test [1] is 0.936 µM (active).

As to `O=C(Cc1cccs1)Nc1cccc(-c2nc3cc4ccccc4cc3[nH]2)c1`, the EC50 in [2] was 14.9 µM (active); in test [3] it was > 99 µM (inactive); in [4], > 99 µM (inactive); in test [5], > 150 µM (not active); in test [6], 4.51 µM (active). Also, the IC50 – broadly, the concentration that gives 50% inhibition – in [7] is > 42 µM (not active).

On to `Cc1cc(NC(=O)Nc2ccccc2[N+](=O)[O-])no1`, for which the AC50 (usually the midpoint of the concentration-response curve, whichever way the signal moves) was 2.02 µM (active) in test [8] and > 380 µM (inactive) in [9].

For the compound `CC(=O)Nc1ccc(/C(C)=N/NC(=O)C2CCCC2)cc1`, in test [10], the AC50 is 126 µM (active). The EC50 in [11] is 11.3 µM (active).

As for `O=C(C[C@H]1C/C=C\CC[C@H](Cc2ccc(F)cc2)C(=O)O[C@@H](c2ccccc2)CNC1=O)N[C@@H](CO)Cc1ccccc1`, the AC50 in test [12] is > 38 µM (inactive).

On to `CCCCNC(=O)CCc1nc(-c2ccc(C(C)(C)C)cc2)no1`, for which the figures for the IC50 in [13], in test [14] and in [15] were > 80 µM (inactive), > 79 µM (inactive) and 14.5 µM (active), respectively.

As to `O=C(Oc1cccc(/C=N/Nc2nc(Nc3ccccc3)nc(N3CCOCC3)n2)c1)c1ccco1`, the EC50 in test [2] was 16 µM (active); in test [5] it was > 150 µM (not active); in [6], 9.28 µM (active). Further, in test [16], the AC50 was 56.1 µM (active). Also, in [17], the IC50 is > 80 µM (inactive).

`C[C@@H]1CN([C@H](C)CO)C(=O)c2cccc(NS(C)(=O)=O)c2O[C@H]1CN(C)Cc1ccc(Oc2ccccc2)cc1`: the AC50 in test [18] is 18.8 µM (active).
